Assay results as given in ChEMBL document CHEMBL1201862, “PubChem BioAssay data set” (2004).
The source made the active and inactive calls.

Tests used:
Streptokinase A = target: T1, Streptokinase A (Streptococcus pyogenes serotype M1, UniProt P10520); experiment: viability-normalized secreted streptokinase activity reduction – plasminogen activation absorbance, OD405, dose response (AID 1914); assay type: functional, Streptococcus pyogenes M1 GAS;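 also: secreted streptokinase activity via plasminogen activation per viability signal from cell pellet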
T1 sequence (P10520 whole entry): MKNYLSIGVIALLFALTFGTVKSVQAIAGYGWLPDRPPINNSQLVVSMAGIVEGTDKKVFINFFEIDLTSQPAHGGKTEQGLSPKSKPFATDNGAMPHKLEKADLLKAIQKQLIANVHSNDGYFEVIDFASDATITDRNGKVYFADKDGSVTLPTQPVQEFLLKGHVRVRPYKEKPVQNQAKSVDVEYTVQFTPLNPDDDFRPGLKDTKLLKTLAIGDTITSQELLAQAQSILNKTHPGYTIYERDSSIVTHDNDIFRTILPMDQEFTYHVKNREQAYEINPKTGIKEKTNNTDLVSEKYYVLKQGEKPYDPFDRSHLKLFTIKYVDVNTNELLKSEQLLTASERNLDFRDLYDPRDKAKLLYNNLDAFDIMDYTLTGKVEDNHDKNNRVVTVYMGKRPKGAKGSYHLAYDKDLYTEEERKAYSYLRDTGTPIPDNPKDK

[1] = target: T2, Heat shock factor protein 1 (Mus musculus, UniProt P38532); experiment: enhancement of HSF1-driven luciferase signal – cell-based, NIH3T3, luminescence, dose retest, confirmation (AID 435004); assay type: functional;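 also: stress induced by proteasome inhibitor MG132 added 30 min after compound; luciferase reporter driven by HSF1 response element in NIH3T3 cells; actives raise luminescence as potentiators of the MG132 stress response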
T2 sequence (P38532 whole entry): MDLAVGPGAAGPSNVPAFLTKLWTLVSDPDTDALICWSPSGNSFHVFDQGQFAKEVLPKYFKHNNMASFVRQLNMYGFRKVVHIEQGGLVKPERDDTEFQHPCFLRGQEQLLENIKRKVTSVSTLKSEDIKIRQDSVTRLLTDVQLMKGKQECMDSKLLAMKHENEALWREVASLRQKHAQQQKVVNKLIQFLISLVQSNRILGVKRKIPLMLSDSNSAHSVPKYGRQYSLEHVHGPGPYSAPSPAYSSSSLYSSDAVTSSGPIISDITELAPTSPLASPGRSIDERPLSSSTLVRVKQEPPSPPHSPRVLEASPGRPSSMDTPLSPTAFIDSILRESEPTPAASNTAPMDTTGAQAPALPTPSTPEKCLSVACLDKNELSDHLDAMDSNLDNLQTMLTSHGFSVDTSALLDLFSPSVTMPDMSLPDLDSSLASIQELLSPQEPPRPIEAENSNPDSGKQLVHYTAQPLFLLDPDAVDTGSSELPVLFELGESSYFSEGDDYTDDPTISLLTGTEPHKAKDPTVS

Streptococcus = experiment: GAS UMAA2166 growth inhibition – luminescence, BacTiterGlo, counter-screen for streptokinase expression inhibitor project, dose response (AID 1915); assay type: functional, organism-based;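 also: potency for reduction of bacterial viability or growth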
[2] = target: T3, Replicative DNA helicase DnaB (Mycobacterium tuberculosis, UniProt P9WMR3); experiment: DnaB intein splicing inhibitors, dose response, biochemical, cell-free fluorescence (AID 449749); assay type: functional
T3 sequence (P9WMR3 whole entry): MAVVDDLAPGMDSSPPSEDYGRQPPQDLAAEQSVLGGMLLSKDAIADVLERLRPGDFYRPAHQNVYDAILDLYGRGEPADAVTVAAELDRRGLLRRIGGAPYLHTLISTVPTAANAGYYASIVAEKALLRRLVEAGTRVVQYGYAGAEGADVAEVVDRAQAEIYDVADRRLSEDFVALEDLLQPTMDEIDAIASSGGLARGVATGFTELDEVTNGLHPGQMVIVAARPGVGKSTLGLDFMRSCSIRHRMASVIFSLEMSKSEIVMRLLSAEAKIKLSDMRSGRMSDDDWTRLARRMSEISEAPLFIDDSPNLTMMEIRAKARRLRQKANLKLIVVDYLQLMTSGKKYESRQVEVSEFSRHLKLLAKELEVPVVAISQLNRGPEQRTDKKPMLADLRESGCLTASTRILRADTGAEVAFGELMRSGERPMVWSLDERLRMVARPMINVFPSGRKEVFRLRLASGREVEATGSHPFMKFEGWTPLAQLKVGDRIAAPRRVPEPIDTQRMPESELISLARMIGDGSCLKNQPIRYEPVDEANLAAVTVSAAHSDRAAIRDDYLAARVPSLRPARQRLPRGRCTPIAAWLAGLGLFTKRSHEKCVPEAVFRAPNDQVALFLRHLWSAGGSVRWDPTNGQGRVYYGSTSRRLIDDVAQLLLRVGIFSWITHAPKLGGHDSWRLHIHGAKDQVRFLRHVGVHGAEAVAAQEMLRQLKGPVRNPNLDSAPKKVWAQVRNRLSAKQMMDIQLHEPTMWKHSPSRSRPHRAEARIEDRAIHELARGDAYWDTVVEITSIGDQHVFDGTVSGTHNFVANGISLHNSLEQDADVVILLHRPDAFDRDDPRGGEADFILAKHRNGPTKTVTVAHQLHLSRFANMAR

Protein RecA = target: T4, Protein RecA (Mycobacterium tuberculosis, UniProt P9WHJ3); experiment: Fluorescence Cell-Free Homogeneous Dose Retest to Identify Inhibitors of RecA-Intein Splicing Activity. [Related pubchem assays (depositor defined):AID2097, AID2223, AID489010, AID492950]; assay type: functional
T4 sequence (P9WHJ3 whole entry): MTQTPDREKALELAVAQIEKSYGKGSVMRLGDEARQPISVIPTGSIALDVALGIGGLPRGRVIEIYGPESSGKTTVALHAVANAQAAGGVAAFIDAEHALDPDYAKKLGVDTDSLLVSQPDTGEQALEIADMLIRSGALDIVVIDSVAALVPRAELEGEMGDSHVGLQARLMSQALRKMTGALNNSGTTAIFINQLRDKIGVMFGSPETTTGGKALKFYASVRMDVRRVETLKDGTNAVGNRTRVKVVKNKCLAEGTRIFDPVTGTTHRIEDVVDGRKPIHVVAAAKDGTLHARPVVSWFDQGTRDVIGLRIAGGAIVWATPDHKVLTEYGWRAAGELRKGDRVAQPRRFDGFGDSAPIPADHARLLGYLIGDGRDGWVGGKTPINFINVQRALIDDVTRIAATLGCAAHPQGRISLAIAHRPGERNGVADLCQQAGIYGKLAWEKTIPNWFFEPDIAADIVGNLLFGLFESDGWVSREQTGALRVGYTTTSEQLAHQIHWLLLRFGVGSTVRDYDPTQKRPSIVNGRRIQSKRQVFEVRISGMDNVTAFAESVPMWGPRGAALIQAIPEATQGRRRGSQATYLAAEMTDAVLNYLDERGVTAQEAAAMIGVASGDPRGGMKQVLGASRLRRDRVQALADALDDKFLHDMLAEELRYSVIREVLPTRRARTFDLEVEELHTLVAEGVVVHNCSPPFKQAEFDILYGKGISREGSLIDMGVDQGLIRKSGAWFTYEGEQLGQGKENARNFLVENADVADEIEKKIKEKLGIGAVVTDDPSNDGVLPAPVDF

[3] = NIH3T3 cell viability loss – ATP luminescence, mouse fibroblasts, counter-screen, dose response (AID 2010); assay type: functional, cell-based;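 also: cells exposed to compound for about 90 hours before reading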
[4] = Luminescence Cell-Based Dose Retest to Confirm Inhibitors of Cancer Stem Cells. [Related pubchem assays (depositor defined):AID2717, AID2721]; assay type: functional; conditions: Homo sapiens
[5] = Trypanosoma cruzi growth suppression in host cells – NIH3T3 host cells, beta-gal luminescence, confirmation (AID 2044); assay type: functional, cell-based;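 also: intracellular parasites grown in NIH/3T3 mouse fibroblasts as host cells; luminescent beta-galactosidase reporter signal from transgenic T. cruzi replicating inside host cells; inhibitors lower the luminescence signal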
[6] = test system: Streptococcus sp. 'group A'; experiment: Streptococcus pyogenes SK(-)GAS viability under kanamycin – luminescence, BacTiterGlo, confirmation, counter-screen for streptokinase expression inhibitor project, dose response (AID 1900); assay type: functional, organism-based
Melanocortin receptor 4 = Melanocortin receptor 4 (Homo sapiens, UniProt P32245); assay type: functional, cell-based;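 also: Cell-based assay with luminescence read-out, confirmatory dose-response testing for agonist activity of biased ligands at MC4R; human U2OS cells with tagged receptor and beta-arrestin; potency of agonists that increase receptor coupling to beta-arrestin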
Melanocortin receptor 4, sequence (P32245 whole entry): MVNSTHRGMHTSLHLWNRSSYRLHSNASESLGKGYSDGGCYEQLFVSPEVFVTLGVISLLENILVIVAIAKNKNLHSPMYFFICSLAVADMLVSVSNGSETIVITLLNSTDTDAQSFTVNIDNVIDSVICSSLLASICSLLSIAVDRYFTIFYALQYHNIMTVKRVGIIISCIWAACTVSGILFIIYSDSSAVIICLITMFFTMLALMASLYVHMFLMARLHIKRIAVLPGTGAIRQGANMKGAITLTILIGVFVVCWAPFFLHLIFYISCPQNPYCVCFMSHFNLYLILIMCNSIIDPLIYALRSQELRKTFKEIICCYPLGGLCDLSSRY

Steroidogenic factor 1 = Steroidogenic factor 1 (Homo sapiens, UniProt Q13285); experiment: Counterscreen for inverse agonists of the liver receptor homolog-1 (LRH-1; NR5A2): Luminescence-based cell-based high throughput dose response assay to identify inverse agonists of the Steroidogenic Factor 1 Nuclear Receptor (SF1; NR5A1).; assay type: functional
Steroidogenic factor 1, sequence (Q13285 whole entry): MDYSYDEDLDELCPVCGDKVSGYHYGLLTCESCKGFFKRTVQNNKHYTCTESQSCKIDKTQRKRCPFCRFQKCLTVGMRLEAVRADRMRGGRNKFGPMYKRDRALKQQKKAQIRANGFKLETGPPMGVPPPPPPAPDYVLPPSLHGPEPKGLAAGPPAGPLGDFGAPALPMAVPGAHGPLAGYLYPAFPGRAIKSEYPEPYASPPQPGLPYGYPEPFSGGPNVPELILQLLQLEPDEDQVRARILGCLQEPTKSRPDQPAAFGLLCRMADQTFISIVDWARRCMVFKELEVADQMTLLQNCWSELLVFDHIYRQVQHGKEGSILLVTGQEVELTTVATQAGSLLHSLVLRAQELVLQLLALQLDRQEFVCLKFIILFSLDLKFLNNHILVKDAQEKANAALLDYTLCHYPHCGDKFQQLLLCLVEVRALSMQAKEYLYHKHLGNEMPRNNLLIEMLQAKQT

[7] = Vero E6 cell cytotoxicity, dose response, cytotoxicity control for non-replicating M. tuberculosis project, secondary assay (AID 492998); assay type: functional, VeroE6; conditions: Vero C1008
[8] = non-specific 3'UTR reporter inhibition in Clone20-Shn3RL – cell-based, Renilla luciferase, cherry-picked, counter-screen for Shn3 inhibitor project, dose response (AID 624133); assay type: functional
[9] = target: Nuclear receptor subfamily 5 group A member 2 (Homo sapiens, UniProt O00482); assay type: functional, cell-based;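 also: HEK293T cells transfected with LRH-1 and a StAR promoter luciferase reporter; potency for inhibitors that lower LRH-1 driven reporter light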
Nuclear receptor subfamily 5 group A member 2, sequence (O00482 whole entry): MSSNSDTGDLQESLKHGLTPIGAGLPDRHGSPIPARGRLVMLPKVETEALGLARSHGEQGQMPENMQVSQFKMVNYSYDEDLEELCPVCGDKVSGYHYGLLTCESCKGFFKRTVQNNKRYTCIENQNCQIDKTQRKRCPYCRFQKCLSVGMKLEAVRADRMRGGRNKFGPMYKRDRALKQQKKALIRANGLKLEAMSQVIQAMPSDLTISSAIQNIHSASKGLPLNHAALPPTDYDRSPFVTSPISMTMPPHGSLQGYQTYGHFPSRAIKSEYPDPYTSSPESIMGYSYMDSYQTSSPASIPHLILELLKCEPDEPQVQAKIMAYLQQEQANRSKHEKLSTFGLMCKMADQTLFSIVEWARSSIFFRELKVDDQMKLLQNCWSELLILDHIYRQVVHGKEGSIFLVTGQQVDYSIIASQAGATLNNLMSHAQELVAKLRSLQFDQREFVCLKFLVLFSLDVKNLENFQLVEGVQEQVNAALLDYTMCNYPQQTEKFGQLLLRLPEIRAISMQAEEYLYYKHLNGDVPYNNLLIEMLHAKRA

[10] = THP-1 cell cytotoxicity, dose response, cytotoxicity control for non-replicating M. tuberculosis project (AID 489025); assay type: functional
[11] = nonselective StAR promoter luciferase inhibitors – cell-based, luminescence, luciferase reporter, counter-screen for LRH-1 inverse agonist project, dose response (AID 651969); assay type: functional
cells = assay type: functional
[12] = reduction of Shn3 3'UTR-driven luciferase in osteoblasts – cell-based, Clone20 osteoblasts, firefly luciferase, cherry-picked, dose response (AID 624132); assay type: functional;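 also: firefly luciferase luminescence from reporter carrying the Shn3 3'UTR in osteoblasts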
INS1 = experiment: INS-1E survival protection against cytokine death – cell-based, luminescence, retest, dose response (AID 449756); assay type: functional; conditions: Rattus norvegicus;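 also: cell death triggered by IL-1 beta plus TNF-alpha plus IFN-gamma mixture; protective hits raise ATP signal compared with cytokine alone wells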
[13] = loss of viability in HepG2 cells – cell-based, CellTiter-Glo, cherry-picked, cytotoxicity control for Shn3 inhibitor project, dose response (AID 624134); assay type: functional
[14] = target: T5, DNA repair and recombination protein RAD54-like (Homo sapiens, UniProt Q92698); experiment: RAD54 Holliday junction migration blockers – biochemical, fluorescence, cherry-picked samples, dose series, confirmation (AID 651657); assay type: functional
T5 sequence (Q92698 whole entry): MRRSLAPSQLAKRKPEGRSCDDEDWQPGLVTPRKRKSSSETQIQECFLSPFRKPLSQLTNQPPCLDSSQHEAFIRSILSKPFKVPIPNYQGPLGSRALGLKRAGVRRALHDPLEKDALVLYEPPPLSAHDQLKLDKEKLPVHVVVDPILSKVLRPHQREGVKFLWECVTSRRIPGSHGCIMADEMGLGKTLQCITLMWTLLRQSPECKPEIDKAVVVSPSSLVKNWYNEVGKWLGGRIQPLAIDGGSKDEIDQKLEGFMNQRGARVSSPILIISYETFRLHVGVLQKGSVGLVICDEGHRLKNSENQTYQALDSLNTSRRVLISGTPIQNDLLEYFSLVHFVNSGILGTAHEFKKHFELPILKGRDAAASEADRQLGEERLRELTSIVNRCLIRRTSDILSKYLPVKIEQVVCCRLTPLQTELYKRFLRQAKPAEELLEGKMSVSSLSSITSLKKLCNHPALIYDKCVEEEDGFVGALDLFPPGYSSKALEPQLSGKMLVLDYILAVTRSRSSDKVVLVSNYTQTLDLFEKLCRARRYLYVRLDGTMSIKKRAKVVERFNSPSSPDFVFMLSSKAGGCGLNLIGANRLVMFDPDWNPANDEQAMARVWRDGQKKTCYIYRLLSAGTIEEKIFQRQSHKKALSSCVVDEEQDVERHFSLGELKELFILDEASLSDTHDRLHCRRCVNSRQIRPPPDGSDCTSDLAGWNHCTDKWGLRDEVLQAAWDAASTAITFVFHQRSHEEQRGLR

[15] = cytotoxicity toward MDA-MB-231 breast cancer cells – cell-based, CellTiter-Glo luminescence, cherry-pick, cytotoxicity control for RAD54 inhibitor project, dose response (AID 651692); assay type: functional
Mu-type opioid receptor = Mu-type opioid receptor (Homo sapiens, UniProt P35372); assay type: functional, cell-based;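 also: U2OS cells with beta-arrestin recruitment to OPRM1 by beta-gal complementation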
Mu-type opioid receptor, sequence (P35372 whole entry): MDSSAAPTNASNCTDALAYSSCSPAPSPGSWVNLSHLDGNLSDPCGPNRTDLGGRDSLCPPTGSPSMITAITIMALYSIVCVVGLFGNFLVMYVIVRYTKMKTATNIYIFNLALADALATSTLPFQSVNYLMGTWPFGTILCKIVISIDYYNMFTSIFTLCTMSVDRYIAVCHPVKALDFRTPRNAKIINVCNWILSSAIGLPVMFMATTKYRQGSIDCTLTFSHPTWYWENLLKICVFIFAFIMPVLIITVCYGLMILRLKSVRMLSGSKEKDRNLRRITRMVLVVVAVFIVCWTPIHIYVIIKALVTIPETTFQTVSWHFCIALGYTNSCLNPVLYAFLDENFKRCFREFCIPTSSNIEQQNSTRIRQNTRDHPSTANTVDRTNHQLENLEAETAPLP

[16] = target: 5-hydroxytryptamine receptor 2A (Mus musculus, UniProt P35363); assay type: functional, cell-based;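 also: CHO-K1 cells with tagged receptor and beta-arrestin; agonist potency measured as compound-induced activation of the receptor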
5-hydroxytryptamine receptor 2A, sequence (P35363 whole entry): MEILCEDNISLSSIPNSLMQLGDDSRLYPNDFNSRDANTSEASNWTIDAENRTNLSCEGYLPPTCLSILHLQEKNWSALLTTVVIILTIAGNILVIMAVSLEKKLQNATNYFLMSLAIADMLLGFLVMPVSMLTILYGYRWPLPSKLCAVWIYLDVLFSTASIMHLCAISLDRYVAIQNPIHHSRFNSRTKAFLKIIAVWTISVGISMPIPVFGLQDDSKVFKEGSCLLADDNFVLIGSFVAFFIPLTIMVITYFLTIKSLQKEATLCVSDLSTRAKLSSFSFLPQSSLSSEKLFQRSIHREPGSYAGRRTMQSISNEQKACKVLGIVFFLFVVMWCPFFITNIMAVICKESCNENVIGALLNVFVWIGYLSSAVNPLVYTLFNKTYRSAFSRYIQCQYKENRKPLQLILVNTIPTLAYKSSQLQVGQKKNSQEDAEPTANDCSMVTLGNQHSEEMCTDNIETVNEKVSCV

[17] = target: Adenosylmethionine-8-amino-7-oxononanoate aminotransferase (Mycobacterium tuberculosis, UniProt P9WQ81); experiment: Mycobacterium tuberculosis BioA enzyme inhibitor Measured in Biochemical System Using Plate Reader - 2163-02_Inhibitor_Dose_CherryPick_Activity.; assay type: functional, Mycobacterium tuberculosis UT205
Adenosylmethionine-8-amino-7-oxononanoate aminotransferase, sequence (P9WQ81 whole entry): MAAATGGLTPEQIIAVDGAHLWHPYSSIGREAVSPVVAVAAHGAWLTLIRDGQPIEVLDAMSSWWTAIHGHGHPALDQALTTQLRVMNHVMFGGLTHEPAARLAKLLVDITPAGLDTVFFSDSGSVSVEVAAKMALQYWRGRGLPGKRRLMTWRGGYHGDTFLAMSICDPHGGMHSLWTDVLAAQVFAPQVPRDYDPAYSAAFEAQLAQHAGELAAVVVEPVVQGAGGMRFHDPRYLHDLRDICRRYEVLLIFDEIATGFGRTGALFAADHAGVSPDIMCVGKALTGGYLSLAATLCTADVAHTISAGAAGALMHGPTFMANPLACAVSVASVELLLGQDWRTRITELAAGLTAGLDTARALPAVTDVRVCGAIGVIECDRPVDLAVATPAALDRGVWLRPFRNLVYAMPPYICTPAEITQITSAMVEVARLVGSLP

[18] = target: Heat shock protein HSP 90-alpha (Homo sapiens, UniProt P07900); assay type: functional, organism-based

## O=C1C2=C(N=C(S)NC2c2ccc(Cl)cc2)NC(c2ccc(Cl)cc2)N1c1ccc(Cl)cc1 (stereo unspecified)
Streptokinase A
  EC50: > 150 µM (not active)
[1]
  EC50: > 260 µM (inactive)
Streptococcus
  EC50: 2.61 µM (active)
[2]
  AC50: 5.92 µM (active)
Protein RecA
  EC50: 13.1 µM (active)
[3]
  EC50: > 60 µM (not active)
[4]
  AC50: 4.68 µM (active)
[5]
  EC50: 3.44 µM (active)
[6]
  EC50: 1.89 µM (active)
Melanocortin receptor 4
  EC50: 9.63 µM (active)

## O=C(Nc1ccc(Cc2ccncc2)cc1)c1ccc([N+](=O)[O-])o1
Steroidogenic factor 1
  IC50: 0.831 µM (active)
[7]
  CC50: 4.99 µM (active)
[8]
  AC50: 13.9 µM (active)
[9]
  IC50: 35.9 µM (inactive)
[10]
  CC50: 5.59 µM (active)
[11]
  IC50: 35.9 µM (inactive)
cells
  IC50: 1.3 µM (active)
[12]
  AC50: 2.71 µM (active)
INS1
  AC50: 7.72 µM (active)
[13]
  AC50: 25.4 µM (active)

## CCOC(=O)c1c(C)n(-c2ccc(OC)cc2)c2ccc(O)c(CN(C)C)c12
[14]
  AC50: 52.6 µM (active)
[15]
  AC50: 34.4 µM (active)

## O=C(NCC(c1ccco1)N1CCN(c2ccccc2F)CC1)C1CCCCC1 (stereo unspecified)
Mu-type opioid receptor
  EC50: 92.5 µM (inactive)
[16]
  EC50: 76.1 µM (inactive)

## O=C(OCC(=O)N1CCN(C(=O)COC(=O)c2ccc(O)cc2O)CC1)c1ccc(O)cc1O
Steroidogenic factor 1
  IC50: 3.09 µM (active)
[9]
  IC50: 3.12 µM (active)
[11]
  IC50: 35.9 µM (inactive)

## CCC(=O)N1CC[C@@H]2[C@H]1c1cc(-c3cccc(F)c3)ccc1N(C)[C@@H]2CO
[17]
  AC50: 2.44 µM (active)

## COC(=O)[C@@H]1[C@@H](CO)[C@@H]2Cn3c(ccc(-c4ccccc4)c3=O)[C@@H]2N1Cc1cccc(F)c1
[17]
  AC50: 4.33 µM (active)

## COc1cccc(-c2nc(NC3CCCC3)c3ccccc3n2)c1O
Streptokinase A
  EC50: 78.1 µM (inconclusive)
Streptococcus
  EC50: > 150 µM (not active)
Mu-type opioid receptor
  EC50: 92.4 µM (inactive)
[18]
  AC50: 3.8 µM (active)
[6]
  EC50: 5.91 µM (active)
[12]
  AC50: 25 µM (active)
[16]
  EC50: 7.62 µM (active)
